The text below walks through data of patent publication US20140314867A1, “VITAMIN K2 MICROSPHERES” (Medical and Pharmaceutical Industry Technology and …, priority 2013, published 2014).

What all share (format): cell-based, human
Assay [1] deals with MG-63 cells. Description: Cell viability analysis (MTT), cell number of co-cultured MG-63 cells. The protocol:
0.0001 g, 0.0005 g, 0.005 g, and 0.05 g of VK2 was fine weighed and sterilized by UV light in a sterile hood overnight, then added into 50 ml centrifuge tubes. 50 ml of H-DMEM containing 10% FBS was then added to prepare cell culture medium with different VK2 concentrations: 0 mg/mL, 0.002 mg/mL, 0.01 mg/mL, 0.1 mg/mL, and 1 mg/mL. H-DMEM containing 10% FBS was used to adjust the concentration of MG-63 cell solution to 1×10^4 cells/ml. 1 ml/well of cell solution was seeded to a 24-well plate and incubated in an incubator for 1 day to make cells adhere. Then, the culture medium was removed, 1 ml/well of cell culture medium with different VK2 concentration were added respectively and incubated for 1, 3, and 7 days. Cell viability analysis (MTT) and alkaline phosphatase activity assay (ALP) were conducted. Cell morphology was observed by an inverted microscope and recorded in photographs. 0.01 g of 0%, 0.01%, 0.1%, and 1.0% VK2MS was fine weighed and sterilized by UV light in a sterile hood overnight, then added into 50 ml centrifuge tubes. 50 ml of H-DMEM containing 10% FBS was then added to prepare cell culture medium with different VK2 concentrations. H-DMEM containing 10% FBS was used to adjust the concentration of MG-63 cell solution to 1×10^4 cells/ml. 1 ml/well of cell solution was seeded to a 24-well plate and incubated in an incubator for 1 day to make the cells adhere. Then, the culture medium was removed, 1 ml/well of cell culture medium with different VK2 concentration were added respectively and incubated for 1, 3, and 7 days. In addition, the cell culture medium without microspheres (MS) was added 1 ml/well and incubated for 1, 3, and 7 days as control groups. Subsequently, cell viability analyse (MTT) and alkaline phosphatase activity assays (ALP) were conducted. Cell morphology was observed by an inverted microscope and recorded by photographs. First, MTT was prepared as a 5 mg/mL reaction solution by PBS, then filtered by a 0.22 μm filter. 10% MTT reagent was prepared by H-DMEM, and then stored in the dark. After being cultured for 1 day, the cell culture medium was removed from the 24-well cell culture plate. The 24-well cell culture plate was washed twice by PBS. After the PBS was removed, 1 ml/well of 10% MTT reagent was added to the culture plate and reacted in an incubator (37° C., 5% CO2) in the dark for 4-5 hours. Purple crystal particles were produced at the bottom of culture plate after the reaction. The reactive solution was removed and 350 μl/well of DMSO solution was added. After being mixed, […] of dissolved solution was suctioned to a 96-well plate and the absorbance at 570 nm was detected by an ELISA reader. The reference wavelength was set as 650 nm. A cell standard curve can be made to reckon the cell number. The cell solution was adjusted to have a concentration of 5000, 10000, 25000, 50000, 75000, and 100000 cells/ml by H-DMEM containing 10% FBS then seeded into a 24-well plate, respectively. After 1 day, after the cells were adhered, an MTT cell viability analysis was conducted. Absorbance and cell numbers were used to make a standard curve, such that the cell number could be reckoned from the absorbance. A growth curve of MG-63 cells was made first, and then the cell growth rate could be obtained by dividing the cell viability by that of the control group which was detected by the MTT assay. The result shown in FIG. 9A can be obtained by converting the data from ELISA to a cell number according to the cell growth curve. In FIG. 9A, it is observed that the cell number of MG-63 co-cultured with VK2 is apparently lower than that of the control group. Moreover, the effect of cell growth inhibition becomes obvious with the increasing concentration of VK2. […]

Assay [2] has as its system MG-63 cells. Description: Alkaline phosphatase (ALP) activity test in co-cultured MG-63 cells. The protocol: 0.0001 g, 0.0005 g, 0.005 g, and 0.05 g of VK2 was fine weighed and sterilized by UV light in a sterile hood overnight, then added into 50 ml centrifuge tubes. 50 ml of H-DMEM containing 10% FBS was then added to prepare cell culture medium with different VK2 concentrations: 0 mg/mL, 0.002 mg/mL, 0.01 mg/mL, 0.1 mg/mL, and 1 mg/mL.
H-DMEM containing 10% FBS was used to adjust the concentration of MG-63 cell solution to 1×10^4 cells/ml. 1 ml/well of cell solution was seeded to a 24-well plate and incubated in an incubator for 1 day to make cells adhere. Then, the culture medium was removed, 1 ml/well of cell culture medium with different VK2 concentration were added respectively and incubated for 1, 3, and 7 days. Cell viability analysis (MTT) and alkaline phosphatase activity assay (ALP) were conducted. Cell morphology was observed by an inverted microscope and recorded in photographs. […]
The measurement of ALP is described below. After being cultured for 1 day, the cell culture medium was removed from the 24-well cell culture plate. Then, the 24-well cell culture plate was washed twice by PBS. After the PBS was removed, 200 μl/well of ALP extraction reagent pNPP65 (p-Nitrophenylphosphate) was added to the 24-well culture plate and reacted in an incubator (37° C., 5% CO2) in the dark for 30 minutes. Then, 50 μl of 1N sodium hydroxide was added to stop the reaction. 250 μl/well of supernatant was suctioned to a 96-well plate to detect the OD value at 405 nm by an ELISA reader. Activity of alkaline phosphatase (ALP) can be calculated by the formula below: […]
In this formula, A is the absorbance of a sample at 405 nm; Vt is the total reaction volume, 0.25 ml; Vs is the sample volume, 0.05 ml; t is the reaction time after adding pNPP65 (p-Nitrophenylphosphate), 30 minutes; c is mmol extinction coefficient of pNPP65 (p-Nitrophenylphosphate), 18.6 mM^−1 cm^−1; 1 is the optical path of the cuvette, 1 cm; 1000 is to convert the U/ml to U/l.

The subject of assay [3] is MG-63 cells. The description is as above. The conditions noted are these: 0.02 mg/mL.

For the substance vitamin K2 [VK2], the cell number in the assay on MG-63 cells [1] (0.002 mg/mL of VK2, day 1) was 4.1±0.1 ×10^4 cells; in the assay on MG-63 cells [1] (0.002 mg/mL of VK2, day 3), 6.6±0.1 ×10^4 cells; with MG-63 cells [1] (0.002 mg/mL of VK2, day 7) it was 14.7±0.1 ×10^4 cells; in the assay on MG-63 cells [1] (1 mg/mL of VK2, day 1) it was 2.0±0.0 ×10^4 cells; in the assay with MG-63 cells [1] (1 mg/mL of VK2, day 3), 5.0±0.1 ×10^4 cells; in the assay with MG-63 cells [1] (1 mg/mL of VK2, day 7), 2.1±0.1 ×10^4 cells. The “effect on cell proliferation” value in the assay on MG-63 cells [1] (MG-63 co-cultured with VK2, 1, 3, 7 days) was “inhibits cell proliferation”. The “ALP value compared with control group” value in the assay on MG-63 cells [2] (0.002 mg/mL of VK2) is listed as “higher than that of the control group”. Besides, the “ALP activity of a single cell” value came out at 96.7±1.1 U/L-30 min-10^4 cells with MG-63 cells [2] (0.002 mg/mL of VK2, day 1); 62.4±0.9 U/L-30 min-10^4 cells in the assay on MG-63 cells [2] (0.002 mg/mL of VK2, day 3); 46.4±0.4 U/L-30 min-10^4 cells with MG-63 cells [2] (0.01 mg/mL of VK2, day 1); 19.8±0.1 U/L-30 min-10^4 cells in the assay on MG-63 cells [2] (0.01 mg/mL of VK2, day 3); 8.2±0.0 U/L-30 min-10^4 cells with MG-63 cells [2] (0.01 mg/mL of VK2, day 7); 70.4±1.7 U/L-30 min-10^4 cells in the assay with MG-63 cells [2] (1.0 mg/mL of VK2, day 7). In addition, the ALP value in the assay with MG-63 cells [2] (0.002 mg/mL of VK2, day 1) came out at 399.9±3.3 U/L-30 min; in the assay on MG-63 cells [2] (0.002 mg/mL of VK2, day 3), 410.7±2.7 U/L-30 min; in the assay with MG-63 cells [2] (0.002 mg/mL of VK2, day 7), 377.4±1.6 U/L-30 min; in the assay on MG-63 cells [2] (0.01 mg/mL of VK2, day 1) it was 111.0±0.7 U/L-30 min; with MG-63 cells [2] (0.1 mg/mL of VK2, day 3), 112.2±0.3 U/L-30 min; in the assay on MG-63 cells [2] (0.1 mg/mL of VK2, day 7), 100.6±0.0 U/L-30 min. Moreover, in the assay with MG-63 cells [3], the “effect on ALP activity of cells” value was “enhance the ALP activity of cells”.
